Measurements: PubChem BioAssay (NCI)
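Compound exposure: 48 hours, 5 concentrations, 96-well plates. Abbreviation: GI50, concentration required for 50% inhibition of growth. The concentration for full growth arrest is given as TGI.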

How the values were obtained:
Assay in all cases: NCI tumour cell line growth inhibition, 48 h
[1] = test system: 786-0 renal
[2] = test system: A498 renal
[3] = test system: A549 NSCLC
[4] = test system: ACHN renal
[5] = test system: BT-549 breast
[6] = test system: CAKI-1 renal
[7] = test system: CCRF-CEM leukemia
[8] = test system: COLO 205 colon
[9] = test system: DU-145 prostate
[10] = test system: EKVX NSCLC
[11] = test system: HCC-2998 colon
[12] = test system: HCT-116 colon
[13] = test system: HCT-15 colon
[14] = test system: HL-60(TB) leukemia
[15] = test system: HOP-62 NSCLC
[16] = test system: HOP-92 NSCLC
[17] = test system: HS 578T breast
[18] = test system: HT29 colon
[19] = test system: IGROV1 ovarian
[20] = test system: K-562 leukemia
[21] = test system: KM12 colon
[22] = test system: LOX IMVI melanoma
[23] = test system: M14 melanoma
[24] = test system: MALME-3M melanoma
[25] = test system: MCF7 breast
[26] = test system: MDA-MB-231 breast
[27] = test system: MDA-MB-435
[28] = test system: MOLT-4 leukemia
[29] = test system: NCI-H226 lung
[30] = test system: NCI-H23 lung
[31] = test system: NCI-H460 lung
[32] = test system: NCI-H522 lung
[33] = test system: NCI/ADR-RES ovarian
[34] = test system: OVCAR-3 ovarian
[35] = test system: OVCAR-4 ovarian
[36] = test system: OVCAR-5 ovarian
[37] = test system: OVCAR-8 ovarian
[38] = test system: PC-3 prostate
[39] = test system: RPMI-8226 leukemia
[40] = test system: RXF 393 renal
[41] = test system: SF-268 CNS
[42] = test system: SF-295 CNS
[43] = test system: SF-539 CNS
[44] = test system: SK-MEL-2 melanoma
[45] = test system: SK-MEL-28 melanoma
[46] = test system: SK-MEL-5 melanoma
[47] = test system: SK-OV-3 ovarian
[48] = test system: SN12C renal
[49] = test system: SNB-19 CNS
[50] = test system: SNB-75 CNS
[51] = test system: SR leukemia
[52] = test system: SW-620 colon
[53] = test system: T-47D breast
[54] = test system: TK-10 renal
[55] = test system: U251 CNS
[56] = test system: UACC-257 melanoma
[57] = test system: UACC-62 melanoma
[58] = test system: UO-31 renal

Question: Which results are given for `Nc1n[nH]c2cccc(C#Cc3cccc(NC(=O)c4ccc(N5CCOCC5)c(C(F)(F)F)c4)c3)c12`?
Answer: GI50 [1]: 2.84 µM; TGI [1]: 7.84 µM; GI50 [2]: 0.384 µM; TGI [2]: 2.09 µM; GI50 [3]: 1.8 µM; TGI [3]: 6.05 µM; GI50 [4]: 0.725 µM; TGI [4]: 4.78 µM; GI50 [5]: 2.08 µM; TGI [5]: 6.8 µM; GI50 [6]: 1.13 µM; TGI [6]: 2.91 µM; GI50 [7]: 1.36 µM; TGI [7]: 6.58 µM; GI50 [8]: 0.525 µM; TGI [8]: 2.33 µM; GI50 [9]: 1.81 µM; TGI [9]: 4.37 µM; GI50 [10]: 1.61 µM; TGI [10]: 4.17 µM; GI50 [11]: 1.32 µM; TGI [11]: 3.15 µM; GI50 [12]: 0.653 µM; TGI [12]: 2.33 µM; GI50 [13]: 1.54 µM; TGI [13]: 6.44 µM; GI50 [14]: 1.4 µM; TGI [14]: 10.5 µM; GI50 [15]: 1.49 µM; TGI [15]: 4.39 µM; GI50 [16]: 0.768 µM; TGI [16]: 3.14 µM; GI50 [17]: 0.508 µM; TGI [17]: 3.77 µM; GI50 [18]: 0.632 µM; TGI [18]: 4.55 µM; GI50 [19]: 0.682 µM; TGI [19]: 3.54 µM; TGI [20]: 13.5 µM; GI50 [21]: 1.29 µM; TGI [21]: 2.91 µM; GI50 [22]: 0.944 µM; TGI [22]: 2.16 µM; GI50 [23]: 0.473 µM; TGI [23]: 2.2 µM; GI50 [24]: 0.54 µM; TGI [24]: 2.12 µM; GI50 [25]: 1.8 µM; TGI [25]: 7.86 µM; GI50 [26]: 0.72 µM; TGI [26]: 2.6 µM; GI50 [27]: 1.09 µM; TGI [27]: 3.31 µM; GI50 [28]: 1.31 µM; TGI [28]: 5.71 µM; GI50 [29]: 0.0687 µM; TGI [29]: 8.53 µM; GI50 [30]: 1.37 µM; TGI [30]: 4.6 µM; GI50 [31]: 1.46 µM; TGI [31]: 3.19 µM; GI50 [32]: 1.15 µM; TGI [32]: 3.56 µM; GI50 [33]: 2.25 µM; TGI [33]: 7.65 µM; GI50 [34]: 1.49 µM; TGI [34]: 5.06 µM; GI50 [35]: 1.06 µM; TGI [35]: 2.98 µM; GI50 [36]: 0.599 µM; TGI [36]: 5.26 µM; GI50 [37]: 1.92 µM; TGI [37]: 6.83 µM; GI50 [38]: 1.93 µM; TGI [38]: 6.83 µM; GI50 [39]: 1.98 µM; TGI [39]: 6.5 µM; GI50 [40]: 1.02 µM; TGI [40]: 2.83 µM; GI50 [41]: 1.3 µM; TGI [41]: 5.35 µM; GI50 [42]: 1.37 µM; TGI [42]: 5.2 µM; GI50 [43]: 0.31 µM; TGI [43]: 1.54 µM; GI50 [44]: 0.855 µM; TGI [44]: 3.25 µM; GI50 [45]: 0.867 µM; TGI [45]: 2.72 µM; GI50 [46]: 1.56 µM; TGI [46]: 3 µM; GI50 [47]: 2.09 µM; TGI [47]: 5.25 µM; GI50 [48]: 1.56 µM; TGI [48]: 5.8 µM; GI50 [49]: 2.75 µM; TGI [49]: 7.39 µM; GI50 [50]: 1.07 µM; TGI [50]: 2.47 µM; GI50 [51]: 2.4 µM; TGI [51]: > 100 µM; GI50 [52]: 1.13 µM; TGI [52]: 5.95 µM; GI50 [53]: 1.06 µM; TGI [53]: 3.68 µM; GI50 [54]: 2.05 µM; TGI [54]: 4.4 µM; GI50 [55]: 2.06 µM; TGI [55]: 7.41 µM; GI50 [56]: 1.77 µM; TGI [56]: 4.38 µM; GI50 [57]: 0.622 µM; TGI [57]: 2.55 µM; GI50 [58]: 0.567 µM; TGI [58]: 2.92 µM
